Tests used:
CT26 tumor cells = assay: Subcutaneous syngeneic colorectal cancer model CT26 in female BALB/c mice; type: in vivo, mouse; conditions: Compound 29 30 mg/kg p.o. (QD or BID) in combination with anti-PD1 10 mg/kg i.p. BIW; FIG. 3
Protocol: The objective of this pharmacology study was to evaluate the anti-tumor growth efficacy of Compound 29 with in combination with anti-PD1 antibody (BP0146) or Isotype IgG2a (BP0089) in the treatment of the subcutaneous CT26 murine colorectal cancer model in female BALB/c mice.
Test particles were delivered via PO when the average tumor volume reached approximately 80 mm^3. Test articles was assessed at dose levels as described in Table 6. Tumor volumes and body weight were measured after the initiation of treatment.
The CT26 tumor cells were maintained in vitro with RPMI-1640 medium supplemented with 10% fetal bovine serum at 37° C. in an atmosphere of 5% CO^2 in air. The cells in exponential growth phase was harvested and quantitated by cell counter before tumor inoculation.
Each mouse was inoculated subcutaneously in the right lower flank region with CT26 tumor cells (5×10^5) in 0.1 ml of PBS for tumor development. […]
Tumor volumes were measured thrice per week after randomization in two dimensions using a caliper, and the volume was expressed in mm^3 using the formula: V=(L×W×W)/2, where V is tumor volume, L is tumor length (the longest tumor dimension) and W is tumor width (the longest tumor dimension perpendicular to L). […]
Tumor growth inhibition (TGI): TGI % is an indication of antitumor activity, and expressed as: TGI (%)=100×(1−T/C). […]

H22 tumor cells = assay: Subcutaneous H22 murine liver cancer model in female BALB/c mice; type: in vivo; set-up: Dunnett's multiple comparisons test Mean Diff.: unit: mm3; conditions: for TGI (%): day 12; for Dunnett's multiple comparisons test Mean Diff.: tumor volume
Protocol: The objective of this pharmacology study was to evaluate the anti-tumor growth efficacy of Compound 85 with in combination with anti-PD1 antibody (BP0146) in the treatment of the subcutaneous H22 murine liver cancer model in female BALB/c mice. Compound 85 test particles were delivered via PO when the average tumor volume reached approximately 80 mm^3. Compound 85 was assessed at 4 different dose levels (2 mpk, 6 mpk, 10 mpk, and 20 mpk for QD) in combination with anti-PD1 antibody (10 mpk, BIW). Tumor volumes and body weight were measured three times per week after the initiation of treatment.
The H22 tumor cells were maintained in vitro with RPMI-1640 medium supplemented with 10% fetal bovine serum at 37° C. in an atmosphere of 5% CO2. Cells in the exponential growth phase were harvested and quantified by cell counter before tumor inoculation.
Each mouse was inoculated subcutaneously in the right front flank region with H22 tumor cells (1×10e6) in 0.1 ml of PBS for tumor development.
After tumor inoculation, the animals were checked daily for morbidity and mortality. During routine monitoring, the animals were checked for any effects of tumor growth and treatments on behavior such as mobility, food and water consumption, body weight gain/loss (Body weights were measured thrice per week after randomization), eye/hair matting and any other abnormalities. Mortality and observed clinical signs were recorded for individual animals in detail.
Tumor volumes were measured three times per week after randomization in two dimensions using a caliper, and the volume was expressed in mm3 using the formula: V=(L×W×W)/2, where V is tumor volume, L is tumor length (the longest tumor dimension) and W is tumor width (the longest tumor dimension perpendicular to L). Dosing, as well as tumor and body weight measurements, were conducted in a Laminar Flow Cabinet.
Tumor growth inhibition (TGI): TGI % is an indication of antitumor activity, expressed as: TGI (%)=100×(1−T/C). T and C are the mean tumor volume (or weight) of the treated and control groups on a given day.
The treatment was performed for 21 days and the study was terminated on day 20 post dosing initiation.

Row | SMILES | tumor growth inhibition of CT26 tumors (CT26 tumor cells) | TGI (%) (H22 tumor cells; Compound 85 2 mpk QD p.o. + anti-PD1 10 mpk BIW vs. Vehicle + isotype) | TGI (%) (H22 tumor cells; Compound 85 6 mpk QD p.o. + anti-PD1 10 mpk BIW vs. Vehicle + isotype) | tumor inhibition compared with anti-PD1 alone (H22 tumor cells; Compound 85 10 mpk QD and 20 mpk QD + anti-PD1 combination) | TGI (%) (H22 tumor cells; Compound 85 10 mpk QD p.o. + anti-PD1 10 mpk BIW vs. Vehicle + isotype) | complete regression (H22 tumor cells; Compound 85 20 mpk QD and anti-PD1 combination group, day 20) | TGI (%) (H22 tumor cells; Compound 85 20 mpk QD p.o. + anti-PD1 10 mpk BIW vs. Vehicle + isotype) | benefit in combination with anti-PD1 (H22 tumor cells; Compound 85 + anti-PD1) | anti-tumor efficacy compared to single agent treatment (H22 tumor cells; Compound 85 at 2, 6, 10 and 20 mpk in combination with Anti-PD-1) | tolerability (H22 tumor cells; Compound 85 up to 20 mpk QD in combination with anti-PD1) | Dunnett's multiple comparisons test Mean Diff. (H22 tumor cells; Vehicle + isotype vs. Compound 85 2 mpk QD + anti-PD1) | Dunnett's multiple comparisons test Mean Diff. (H22 tumor cells; Vehicle + isotype vs. Compound 85 6 mpk QD + anti-PD1) | Dunnett's multiple comparisons test Mean Diff. (H22 tumor cells; Vehicle + isotype vs. Compound 85 10 mpk QD + anti-PD1) | Dunnett's multiple comparisons test Mean Diff. (H22 tumor cells; Vehicle + isotype vs. Compound 85 20 mpk QD + anti-PD1) | loss of average body weight (H22 tumor cells; day 2 of treatment, Compound 85 20 mpk QD and anti-PD1 combination)
1 | C[C@H]1CCCN(Cc2cc(C(F)(F)F)c3cn(-c4cccc(C5(Cc6nncn6C)COC5)c4)c(=O)n3c2)C1 [Compound 29] | further enhanced |  |  |  |  |  |  |  |  |  |  |  |  |  | 
2 | C[C@H]1CCCN(Cc2cc(C(F)(F)F)c3cn(-c4cccc([C@H](c5nncn5C)C5CCC5)c4)c(=O)n3c2)C1 [Compound 85] |  | 74.8% | 82.87% | statistically significant increase | 85.2% | One complete regression | 87.73% | additive or synergistic benefit | increased anti-tumor efficacy | No tolerability issue | 2158 | 2391 | 2458 | 2531 | less than 5%
